Experimental data published in patent publication US20180237424A1, “FGFR3 ANTAGONISTS” (INSERM (INSTITUT NATIONAL DE LA SANTE ET DE LA RECHERCHE …, priority 2015, published 2018).
Blank lines part the entries; values can stand above or below the compound they belong to.

Legend:
FGFR3-K650E = target: T1, FGFR3-K650E (Homo sapiens, UniProt P22607, K650E); assay: in cellulo FGFR3 phosphorylation in HEK 293 VNR cells transfected with FGFR3-K650E (immunoprecipitation, western blot); type: cell-based
T1 construct: expressed in transfected cells; host or cells: HEK 293 VNR cells
T1 sequence (P22607 23-806 K650E): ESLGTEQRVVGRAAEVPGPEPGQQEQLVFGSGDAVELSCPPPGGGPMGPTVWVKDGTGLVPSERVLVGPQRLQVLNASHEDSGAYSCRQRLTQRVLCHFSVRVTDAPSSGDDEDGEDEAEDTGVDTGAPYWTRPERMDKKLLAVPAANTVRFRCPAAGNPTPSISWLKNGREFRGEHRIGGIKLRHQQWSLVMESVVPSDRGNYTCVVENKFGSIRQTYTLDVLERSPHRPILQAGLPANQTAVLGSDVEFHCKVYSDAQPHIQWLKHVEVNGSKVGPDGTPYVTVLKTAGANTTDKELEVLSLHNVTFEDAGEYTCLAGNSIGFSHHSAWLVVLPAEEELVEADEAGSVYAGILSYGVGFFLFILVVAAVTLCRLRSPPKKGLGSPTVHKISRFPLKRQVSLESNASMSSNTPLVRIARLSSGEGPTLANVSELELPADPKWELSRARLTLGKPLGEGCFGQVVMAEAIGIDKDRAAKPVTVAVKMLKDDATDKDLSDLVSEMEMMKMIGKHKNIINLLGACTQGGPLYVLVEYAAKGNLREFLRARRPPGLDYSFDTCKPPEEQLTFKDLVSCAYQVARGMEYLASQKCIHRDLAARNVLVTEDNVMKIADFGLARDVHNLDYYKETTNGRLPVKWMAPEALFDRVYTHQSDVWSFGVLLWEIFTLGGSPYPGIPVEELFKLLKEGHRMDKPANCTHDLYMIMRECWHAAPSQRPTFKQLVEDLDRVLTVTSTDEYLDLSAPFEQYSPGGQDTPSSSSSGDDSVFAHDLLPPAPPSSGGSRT

FGFR3 WT = FGFR3 WT (Homo sapiens, UniProt P22607); assay: in vitro inhibition of FGFR3 (WT); type: biochemical
Sequence of FGFR3 WT (P22607 23-806): as the sequence (P22607 23-806 K650E) above, with E628K counted along it

Compound: COC(=O)c1c(NC(C)=O)c(-c2noc(-c3ccccc3)n2)nn1-c1cccc(OC)c1 [Cpd 134, Methyl 4-acetamido-1-(3-methoxyphenyl)-3-(5-phenyl-1,2,4-oxadiazol-3-yl)-1H-pyrazole-5-carboxylate]
melting point: 186 to 188 °C

Compound: COC(=O)c1c(NC(C)=O)c(-c2noc(-c3ccc(Br)cc3)n2)nn1-c1cccc(OC)c1 [Cpd 24, Methyl 4-acetamido-3-(5-(4-bromophenyl)-1,2,4-oxadiazol-3-yl)-1-(3-methoxyphenyl)-1H-pyrazole-5-carboxylate]
IC50 (FGFR3-K650E): 0.15 µM
melting point: 224 °C

Compound: COC(=O)c1c(NC(C)=O)c(-c2noc(-c3ccc([N+](=O)[O-])cc3)n2)nn1-c1cccc(OC)c1 [Example 2, Methyl 4-acetamido-1-(3-methoxyphenyl)-3-(5-(4-nitrophenyl)-1,2,4-oxadiazol-3-yl)-1H-pyrazole-5-carboxylate]
melting point: 248 °C

Compound: COC(=O)c1c(NC(C)=O)c(-c2noc(-c3ccc(N(C)C)cc3)n2)nn1-c1cccc(OC)c1 [Cpd 27, Methyl 4-acetamido-3-(5-(4-(dimethylamino)phenyl)-1,2,4-oxadiazol-3-yl)-1-(3-methoxyphenyl)-1H-pyrazole-5-carboxylate]
melting point: 196 °C

Second part, the compound after the results:

IC50 (FGFR3 WT; no qualifier printed (column % in vitro inhibition)): 2 µM
Compound: COC(=O)c1c(NC(C)=O)c(-c2noc(-c3ccc([N+](=O)[O-])cc3)n2)nn1-c1cccc(-c2cn(Cc3ccccc3)nn2)c1 [Cpd 64]

inhibition at 0.5 µM (FGFR3-K650E; HEK293, @ 500 nM, K650E): 0%
Compound: COC(=O)c1c(NC(C)=O)c(-c2noc(-c3ccc([N+](=O)[O-])cc3)n2)nn1-c1cccc(OC)c1 [Cpd 25]

inhibition at 10 µM (FGFR3 WT): 21%
inhibition at 50 µM (FGFR3 WT): 97%
Compound: CC(=O)Nc1c(-c2noc(-c3ccc([N+](=O)[O-])cc3)n2)nn(-c2cccc(-c3cn(Cc4ccccc4)nn3)c2)c1C(=O)NCc1ccccc1 [Cpd 79]
